Assay results as given in patent US4405643A, “Treatment of acute pulmonary edema with arginine esters” (Italfarmaco S.p.A., priority 1979, dated 1983).
Where a name gives a salt, the structure may show the parent alone.

Tests used:
[1] = system: Fibrin Degradation Products; assay: Inhibition of hyperfibrinolysis caused by urokinase (F.D.P., staphylococcal clumping test); type: in vivo, Wistar rats; settings: parenteral, 30 min before urokinase 2500 U.I/rat
Method: The induction of hyperfibrinolysis state is caused by administration of urokinase. The determination of the inhibition is carried out by determination of the F.D.P. value, that is Fibrin Degradation Products, according to the procedure of J. Hawiger et al, J. Lab. Clin. Med. 75, 93 (1970), by means of the staphylococcal clumping test (Boehringer Mannheim GmbH test).
There are used Wistar rats of 300 grams ±10 by weight previously stabilized for a period of ten days at a temperature of 21°±1° C., under conditions of controlled diet and water "ad libitum". Twenty-four hours prior to the beginning of the experiment, the animals are divided in groups of ten for the purpose of achieving randomization. Each individual dose is tried on three groups of animals.
At the beginning of the test, zero time, the compounds being tested are administered through the parenteral route. In the case of the control animals, at the same time an equal volume of a physiological saline solution is administered except that some blood is removed by means of a cardiac puncture, for the purpose of determining the basal fibrinolytic activity. After 30 minutes, human urokinase (the composition marketed by Ukidan-Serono) is administered intravenously in the amount of 2500 U.I/rat. After an additional period of ten minutes, blood is removed by means of a cardiac puncture for the final determination of F.D.P., a determination which is expressed in […].

[2] = Protection against shock caused by endotoxins (lipopolysaccharide B from S. Enteritidis); type: in vivo, male rats of Wistar type; settings: parenteral, 1 h before endotoxin, after 24 h
Excerpt: Endotoxin-induced shock has been produced according to the method reported by A. Bertelli and L. Donati, in the publication "The Influence of Some Enzymes and Enzymes Inhibitors in Shock", published in "SHOCK Biochemical,Pharmaceutical and Clinical Aspects"; A. Bertelli and N. Back Editors, Advances in Experimental Medicine and Biology; Volume 9, Plenum Press New York - London 1970, page 215. By way of comparison, there has been used a substance of well known therapeutical activity, specifically aprotinine, the commercial products marketed by Farbenfabriken Bayer, under the name "Trasylol". Male rats of Wistar type of 120 grams by weight ±10 have been used. The rats were previously stabilized for a period of ten days at a temperature of 21°±1° C. under a controlled diet and water "ad libitum". Twenty-four hours prior to the test, the animals were divided in groups of ten for the purpose of achieving randomization. Every single dose has been tried on six groups of animals.
Lipopolysaccharide B from S. Enteritidis (Difco Labs.) was used as the endotoxin. This substance was administered in the dose of 10 mg/kg by the endoperitoneal route, one hour after administration of the substance being administered by the parenteral route or in the form of a physiological solution in equal volume per kilogram to the animals being used as control.
The mortality in percent was determined in the animals being tested as compared with the controls after twenty-four hours.

[3] = Protection against anaphylactic shock (horse serum); type: in vivo, male albino guinea pigs; settings: parenteral, with horse serum challenge, after 12 h
Method: The anaphylactic shock has been induced according to the method of S. M. Feinberg, M. Pharmacol. Exp. Therapeut., 99, 195 (1950). There have been used male albino guinea pigs of average weight, 350±20 grams previously stabilized for a period of ten days at a temperature of 21°±1° C., under conditions of controlled diet and water "ad libitum". Three days before the beginning of the experiment, the animals are divided in groups of ten for the purpose of achieving good randomization. Each single dose has been tried on three groups of animals.
The sensitization has been carried out by administration of 1 ml/guinea pig through the endovenous route of horse serum, (whole serum, not treated with preservatives) diluted 1:10 in physiological saline solution. After 14 days, the solutions of the substances being tested and the samples of physiological solutions for use with the controls are administered through the parenteral route. Simultaneously, 1 ml/guinea pig of horse serum, undiluted is administered, this substance being used as the agent which prompts the anaphylaxis. The percentage of mortality is determined after 12 hours.

[4] = Protection against pulmonary edema (adrenaline-induced acute edema of the lungs); type: in vivo, male albino rats of Wistar type; settings: parenteral, 15 min before adrenaline
Method: The method of A. M. Rothschild and A. Castania (Arch. Pharmacol., 295, 177 (1976)), has been used to develop the acute edema in the lungs and substances of known therapeutic activity have been used for comparison purpose.
For the test, male albino rats of Wistar type of average weight 250-350 grams, have been used for the test. The rats were stabilized for a period of ten days at a temperature of 21°±1° C., under conditions of controlled diet and water "ad libitum". Prior to the test, the animals were divided into groups of ten for the purpose of achieving good randomization. Each dose was tried on three groups of animals. The animals were anesthetized with pentobarbital in a dose of 30 mg/kg at the beginning of the test. After the animals were in complete narcosis, the following substances were administered by the parenteral route:
1. to the animals as controls, physiological saline solution in the amount of 1 ml/kg,
2. to the animals in the test, a solution of the substance being tested in physiological saline solution in the amount of 1 ml/kg in the doses reported hereinbelow in the table.
After a period of 15 minutes, for the purpose of determining the protective activity of the substances, adrenaline was administered in the amount of 16 γ/kg by the endovenous route and in physiological saline solution, for the purpose of causing acute edema.
After five minutes, the animals were killed by removal of the head, the lungs were removed and the weight of the lungs were determined. The results of the test are reported in Table 1 hereinbelow, together with the concentration of the substances and the relative inhibition of edema in percent.

Compound	F.D.P. ([1]; dose 5 mg/kg)	F.D.P. ([1]; dose 10 mg/kg)	F.D.P. ([1]; dose 20 mg/kg)	% MORTALITY ([2]; dose 5 mg/kg)	% MORTALITY ([2]; dose 10 mg/kg)	% MORTALITY ([2]; dose 20 mg/kg)	% MORTALITY ([2]; dose 50 mg/kg)	% MORTALITY ([3]; dose 10 mg/kg)	% MORTALITY ([3]; dose 20 mg/kg)	% MORTALITY ([3]; dose 50 mg/kg)	% INHIBITION OF EDEMA ([4]; dose 1 mg/kg)	% INHIBITION OF EDEMA ([4]; dose 2.5 mg/kg)	% INHIBITION OF EDEMA ([4]; dose 5 mg/kg)	% INHIBITION OF EDEMA ([4]; dose 10 mg/kg)	% INHIBITION OF EDEMA ([4]; dose 20 mg/kg)	other results
CCOC(=O)[C@@H](N)CCCNC(=N)N [L-A.E., LArginine ethyl ester hydrochloride]	0.50 milliliters	0.33 milliliters	0.27 milliliters	51.3%	48.2%	37.5%	25.0%	35%	23%	9.5%	55.7%	47.9%	41.0%	38.9%	39.7%	% INHIBITION OF EDEMA ([4]; dose 0.1 mg/kg): 3.4%; % INHIBITION OF EDEMA ([4]; dose 0.25 mg/kg): 32.2%; % INHIBITION OF EDEMA ([4]; dose 0.5 mg/kg): 33.3%
NC[C@H]1CC[C@H](C(=O)O)CC1 [Tranexamic Acid, trans4-(aminomethyl)cyclohexancarboxylic acid]	0.58 milliliters	0.39 milliliters	0.33 milliliters													
COC(=O)[C@H](N)CCCNC(=N)N [D-A.M., DArginine methyl ester hydrochloride]	3.10 milliliters	3.03 milliliters	3.16 milliliters	71.2%	68.5%	69%	73%	78.8%	81.0%	76.3%	16.8%	11.7%	15.4%	4.4%	6.4%	
COC(=O)[C@@H](N)CCCNC(=N)N [L-A.M., LArginine methyl ester hydrochloride]	0.48 milliliters	0.30 milliliters	0.25 milliliters	55.0%	50.0%	40.0%	28.0%	40.5%	27%	12.5%	21.2%	27.4%	29.0%	55.7%	15.7%	
CCO [Ethanol]																F.D.P. ([1]; dose 2 mg/kg): 3.06 milliliters; F.D.P. ([1]; dose 4 mg/kg): 2.95 milliliters; F.D.P. ([1]; dose 8 mg/kg): 3.11 milliliters; % MORTALITY ([2]; dose 2 mg/kg): 67%; % MORTALITY ([2]; dose 4 mg/kg): 69%; % MORTALITY ([2]; dose 8 mg/kg): 73%; % MORTALITY ([3]; dose 2 mg/kg): 76.4%; % MORTALITY ([3]; dose 4 mg/kg): 74%; % MORTALITY ([3]; dose 8 mg/kg): 76.5%; % INHIBITION OF EDEMA ([4]; dose 0.08 mg/kg): 7%; % INHIBITION OF EDEMA ([4]; dose 0.8 mg/kg): 12%; % INHIBITION OF EDEMA ([4]; dose 2 mg/kg): 15%; % INHIBITION OF EDEMA ([4]; dose 4 mg/kg): 14.7%; % INHIBITION OF EDEMA ([4]; dose 8 mg/kg): 16%; % INHIBITION OF EDEMA ([4]; dose 16 mg/kg): 15.9%
N=C(N)NCCC[C@H](N)C(=O)O [L-Arginine.2HCl]	3.28 milliliters	2.96 milliliters	3.15 milliliters	69%	73%	71%	78%	78.5%	76.3%	80%	7%	9%	11%	10.1%	13.1%	
CCOC(=O)[C@H](N)CCCNC(=N)N [D-A.E., DArginine ethyl ester hydrochloride]	3.20 milliliters	3.16 milliliters	3.19 milliliters	72%	67%	69.3%	71%	76.7%	79.4%	81.0%	4.2%	7%	5.3%	6%	2.5%	% INHIBITION OF EDEMA ([4]; dose 0.1 mg/kg): 7%; % INHIBITION OF EDEMA ([4]; dose 0.25 mg/kg): 11%; % INHIBITION OF EDEMA ([4]; dose 0.5 mg/kg): 3%
CO [Methanol]																F.D.P. ([1]; dose 2 mg/kg): 3.02 milliliters; F.D.P. ([1]; dose 4 mg/kg): 3.12 milliliters; F.D.P. ([1]; dose 8 mg/kg): 3.27 milliliters; % MORTALITY ([2]; dose 2 mg/kg): 76%; % MORTALITY ([2]; dose 4 mg/kg): 72%; % MORTALITY ([2]; dose 8 mg/kg): 74%; % MORTALITY ([3]; dose 2 mg/kg): 76.6%; % MORTALITY ([3]; dose 4 mg/kg): 79.4%; % MORTALITY ([3]; dose 8 mg/kg): 81%; % INHIBITION OF EDEMA ([4]; dose 0.08 mg/kg): 2.3%; % INHIBITION OF EDEMA ([4]; dose 0.8 mg/kg): 5%; % INHIBITION OF EDEMA ([4]; dose 2 mg/kg): 12%; % INHIBITION OF EDEMA ([4]; dose 4 mg/kg): 6%; % INHIBITION OF EDEMA ([4]; dose 8 mg/kg): 15%; % INHIBITION OF EDEMA ([4]; dose 16 mg/kg): 15%
CC(=O)Oc1ccccc1C(=O)O [Aspirin]											32.2%	36.9%	48.2%	54.3%	19.6%	
